Assay results reported in patent publication US9394297B2, “Amides as pim inhibitors” (AMGEN INC., priority 2012, dated 2016).
Where two headings read alike, the source gives them in different places.

What was measured:
[1] = test system: KMS-12-BM myeloma cell line; experiment: Pim KMS-12 cell assay (phospho-BAD S112 / total BAD, MSD)
[2] = molecular target: Pim-2 (Homo sapiens (Human), UniProt Q9P1W9); experiment: Pim-Mn enzyme assay (HTRF, 384-well), Pim-2; format: biochemical; details: Pim-2 enzyme 0.5 pM, ATP 1.5 μM, BAD (S112) 0.5 μM, HTRF, 22-point curve; read-out: Pim-2-Mn IC50 IP
Chain of Pim-2 (Q9P1W9 whole entry): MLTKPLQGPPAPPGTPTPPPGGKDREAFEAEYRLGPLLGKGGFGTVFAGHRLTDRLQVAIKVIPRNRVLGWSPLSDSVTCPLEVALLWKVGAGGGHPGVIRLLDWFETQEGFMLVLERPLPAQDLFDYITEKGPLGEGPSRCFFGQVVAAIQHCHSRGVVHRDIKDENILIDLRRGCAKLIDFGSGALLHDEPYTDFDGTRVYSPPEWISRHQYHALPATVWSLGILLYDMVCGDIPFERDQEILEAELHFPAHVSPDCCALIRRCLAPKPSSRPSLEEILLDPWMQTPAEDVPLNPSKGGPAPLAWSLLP

[3] = molecular target: Pim-1 (Homo sapiens (Human), UniProt P11309); experiment: Pim-Mn enzyme assay (HTRF, 384-well), Pim-1; format: biochemical; details: read-out: Pim-1-Mn IC50 IP
Chain of Pim-1 (P11309 whole entry): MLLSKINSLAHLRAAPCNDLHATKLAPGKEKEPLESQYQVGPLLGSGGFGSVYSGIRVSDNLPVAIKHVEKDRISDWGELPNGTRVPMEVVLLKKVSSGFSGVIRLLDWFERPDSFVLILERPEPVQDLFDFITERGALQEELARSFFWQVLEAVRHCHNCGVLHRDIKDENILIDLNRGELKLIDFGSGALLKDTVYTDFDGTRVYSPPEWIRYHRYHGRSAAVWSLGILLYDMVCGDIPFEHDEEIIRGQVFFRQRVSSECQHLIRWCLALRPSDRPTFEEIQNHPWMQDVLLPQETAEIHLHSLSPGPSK

[4] = Homo sapiens, KMS-12-BM, read-out: KMS-12-BM IC50 IP, KMS-12-BM cells, phospho-BAD (S112) vs total BAD, 1 hour 50 min with compound
[5] = Pim-1 enzyme 5 pM, ATP 1.5 μM, BAD (S112) 0.5 μM, HTRF, 22-point curve
[6] = Homo sapiens, KMS-12-BM, read-out: KMS-12-BM IC50 IP
[7] = read-out: KMS-12-BM IC50 IP, KMS-12-BM cells, phospho-BAD (S112) vs total BAD, 1 hour 50 min with compound

| Structure (SMILES) | IC50 [1, 4] [nM] | IC50 [2] [nM] | IC50 [3, 5] [nM] | also measured |
| --- | --- | --- | --- | --- |
| Cc1nc2cccc(-c3cc4c([nH]3)CCNC4=O)c2nc1N(C)C(C)C [Example 68, 2-(2-methyl-3-(methyl(1-methylethyl)amino)-5-quinoxalinyl)-1,5,6,7-tetrahydro-4H-pyrrolo[3,2-c]pyridin-4-one] | 445 | 6.1 | 4.5 | – |
| CC1(C)COCCN1c1cnc2cccc(-c3cc4c([nH]3)CCNC4=O)c2n1 [Example 213, 2-(3-(3,3-dimethylmorpholino)quinoxalin-5-yl)-6,7-dihydro-1H-pyrrolo[3,2-c]pyridin-4(5H)-one] | 227 | 3.2 | – | IC50 [3]: 1.6 nM |
| CC(C)(C)Nc1cnc2cccc(-c3cc4n(c3)CCNC4=O)c2n1 [Example 173, 7-(3-(tert-butylamino)quinoxalin-5-yl)-3,4-dihydropyrrolo[1,2-a]pyrazin-1(2H)-one] | 181 | 1.4 | 1.3 | – |
| Cc1nc2cccc(-c3cc4c([nH]3)CCNC4=O)c2nc1NCC(C)(C)O [Example 148, 2-(3-((2-hydroxy-2-methylpropyl)amino)-2-methylquinoxalin-5-yl)-6,7-dihydro-1H-pyrrolo[3,2-c]pyridin-4(5H)-one] | 420 | 8.7 | 8 | – |
| O=C1NCCc2[nH]c(-c3cccc4ccc(NC5CC5)nc34)cc21 [Example 99, 2-(2-(cyclopropylamino)quinolin-8-yl)-6,7-dihydro-1H-pyrrolo[3,2-c]pyridin-4(5H)-one] | 723 | 7 | 1.1 | – |
| Cc1nc2cccc(-c3cc4n(c3)CCNC4=O)c2nc1NC1(C)CC1 [Example 100, 7-(2-methyl-3-((1-methylcyclopropyl)amino)quinoxalin-5-yl)-3,4-dihydropyrrolo[1,2-a]pyrazin-1(2H)-one 2,2,2-trifluoroacetate] | 144 | 0.961 | 1.34 | – |
| O=C1NCCc2[nH]c(-c3cccc4ccc(Nc5c(F)cccc5F)nc34)cc21 [Example 175, 2-(2-((2,6-difluorophenyl)amino)quinolin-8-yl)-6,7-dihydro-1H-pyrrolo[3,2-c]pyridin-4(5H)-one] | 1510 | – | – | – |
| CN(c1cnc2cccc(-c3cc4c([nH]3)CCNC4=O)c2n1)C(C)(C)C [Example 215, 2-(3-(tert-butyl(methyl)amino)quinoxalin-5-yl)-6,7-dihydro-1H-pyrrolo[3,2-c]pyridin-4(5H)-one] | – | 0.7 | 0.6 | IC50 [1, 6]: 153 nM |
| CC1CNC(=O)c2cc(-c3cccc4ccc(Nc5ccccc5)nc34)[nH]c21 (single isomer, unassigned) [Example 30, 7-methyl-2-(2-(phenylamino)quinolin-8-yl)-6,7-dihydro-1H-pyrrolo[3,2-c]pyridin-4(5H)-one] | – | – | – | IC50 [1, 7]: 5890 nM |
| Cc1nc2cccc(-c3cc4c([nH]3)CCNC4=O)c2nc1N[C@H]1CCC[C@@H](N)C1 (single isomer, unassigned) [Example 140, 2-(3-((cis-3-aminocyclohexyl)amino)-2-methylquinoxalin-5-yl)-6,7-dihydro-1H-pyrrolo[3,2-c]pyridin-4(5H)-one] | 1240 | – | – | – |
| Cc1nc2cccc(-c3cc4c([nH]3)CCNC4=O)c2nc1NC(C)C(C)C (racemic) [Example 73, 2-(3-4(±)-1,2-dimethylpropyl)amino)-2-methyl-5-quinoxalinyl)-1,5,6,7-tetrahydro-4H-pyrrolo[3,2-c]pyridin-4-one] | 107 | – | – | – |
| CCNc1nc2c(-c3cc4c([nH]3)CCNC4=O)cccc2nc1C [Example 69, 2-(3-(ethylamino)-2-methyl-5-quinoxalinyl)-1,5,6,7-tetrahydro-4H-pyrrolo[3,2-c]pyridin-4-one] | – | 1.7 | 3.4 | IC50 [1, 6]: 223 nM |
| CCC1CNC(=O)c2cc(-c3cccc4ccc(Nc5ccccc5)nc34)[nH]c21 (racemic) [Example 24, rac-7-ethyl-2-(2-(phenylamino)quinolin-8-yl)-6,7-dihydro-1H-pyrrolo[3,2-c]pyridin-4(5H)-one] | 1410 | – | – | – |
| Cc1nc2cccc(-c3cc4c([nH]3)CCNC4=O)c2nc1N[C@@H]1CCCNC1 [Example 75, 2-(2-methyl-3-((3R)-3-piperidinylamino)-5-quinoxalinyl)-1,5,6,7-tetrahydro-4H-pyrrolo[3,2-c]pyridin-4-one] | 892 | 1.2 | 0.6 | – |
| CC(c1ccccc1)c1ccc2cccc(-c3cc4c([nH]3)CCNC4=O)c2n1 (single isomer, unassigned) [Example 116, 2-(2-(1-phenylethyl)quinolin-8-yl)-6,7-dihydro-1H-pyrrolo[3,2-c]pyridin-4(5H)-one] | 7540 | – | – | – |
| Cc1nc2cccc(-c3cc4c([nH]3)C3(CC3)CNC4=O)c2nc1NC1CC1 [Example 77, 2′-(3-(cyclopropylamino)-2-methyl-5-quinoxalinyl)-5′,6′-dihydrospiro[cyclopropane-1,7′-pyrrolo[3,2-c]pyridin]-4′(1′H)-one] | – | 3.8 | 1.6 | IC50 [1, 6]: 494 nM |
| COCC(C)(C)Nc1nc2c(-c3cc4c([nH]3)CCNC4=O)cccc2nc1C [Example 63, 2-(3-((2-methoxy-1,1-dimethylethyl)amino)-2-methyl-5-quinoxalinyl)-1,5,6,7-tetrahydro-4H-pyrrolo[3,2-c]pyridin-4-one] | 513 | 5.4 | 4.3 | – |
| CC1CNC(=O)c2cc(-c3cccc4ccc(Nc5ccccc5)nc34)[nH]c21 (single isomer, unassigned) [Example 29, 7-methyl-2-(2-(phenylamino)quinolin-8-yl)-6,7-dihydro-1H-pyrrolo[3,2-c]pyridin-4(5H)-one] | – | – | – | IC50 [1, 7]: 737 nM |
| Cc1nc2cccc(-c3cc4c([nH]3)CCNC4=O)c2nc1NC1CCCOC1 (single isomer, unassigned) [Example 209, 2-(2-methyl-3-((tetrahydro-2H-pyran-3-yl)amino)quinoxalin-5-yl)-6,7-dihydro-1H-pyrrolo[3,2-c]pyridin-4(5H)-one] | – | – | – | IC50 [1, 7]: 268 nM |
| O=C1NCCc2[nH]c(-c3cccc4ccc(N[C@H]5CC[C@H](O)CC5)nc34)cc21 [Example 82, 2-(2-(((1R,4R)-4-hydroxycyclohexyl)amino)quinolin-8-yl)-6,7-dihydro-1H-pyrrolo[3,2-c]pyridin-4(5H)-one] | 4620 | – | – | – |

More lines, main results first:

| IC50 [1, 4] [nM] | IC50 [2] [nM] | IC50 [3, 5] [nM] | Structure (SMILES) | also measured |
| --- | --- | --- | --- | --- |
| 418 | 2 | 1.3 | Cc1nc2cccc(-c3cc4c([nH]3)CCNC4=O)c2nc1N[C@H](C)C1CC1 [Example 271, 2-(3-(((1R)-1-cyclopropylethyl)amino)-2-methyl-5-quinoxalinyl)-1,5,6,7-tetrahydro-4H-pyrrolo[3,2-c]pyridin-4-one] | – |
| 49.7 | 0.3 | 0.2 | CC1(Nc2cnc3cccc(-c4cc5c([nH]4)CCNC5=O)c3n2)CC1 [Example 211, 2-(3-((1-methylcyclopropyl)amino)quinoxalin-5-yl)-6,7-dihydro-1H-pyrrolo[3,2-c]pyridin-4(5H)-one] | – |
| 1850 | – | – | CC[C@H]1CNC(=O)c2cc(-c3cccc4ccc(Nc5ccccc5)nc34)[nH]c21 [Example 239, (S)-7-ethyl-2-(2-(phenylamino)quinolin-8-yl)-6,7-dihydro-1H-pyrrolo[3,2-c]pyridin-4(5H)-one] | – |
| 538 | 2.3 | 1.3 | CC1(C)CCCCN1c1cnc2cccc(-c3cc4c([nH]3)CCNC4=O)c2n1 [Example 212, 2-(3-(2,2-dimethylpiperidin-1-yl)quinoxalin-5-yl)-6,7-dihydro-1H-pyrrolo[3,2-c]pyridin-4(5H)-one] | – |
| 1090 | 17.4 | 36 | Cc1nc2cccc(-c3cc4c([nH]3)CCNC4=O)c2nc1N [Example 218, 2-(3-amino-2-methylquinoxalin-5-yl)-6,7-dihydro-1H-pyrrolo[3,2-c]pyridin-4(5H)-one] | – |
| 445 | 3.5 | 2.6 | Cc1nc2cccc(-c3cc4c([nH]3)CCNC4=O)c2nc1NC1CCCC(O)C1 (racemic) [Example 204, 2-(3-((3-hydroxycyclohexyl)amino)-2-methylquinoxalin-5-yl)-6,7-dihydro-1H-pyrrolo[3,2-c]pyridin-4(5H)-one] | – |
| 252 | – | – | Cc1nc2cccc(-c3cc4c([nH]3)CCNC4=O)c2nc1NC(C)(C)CCO [Example 279, 2-(3-((3-hydroxy-1,1-dimethylpropyl)amino)-2-methyl-5-quinoxalinyl)-1,5,6,7-tetrahydro-4H-pyrrolo[3,2-c]pyridin-4-one] | – |
| 225 | – | – | CC1(C)CCCN1c1cnc2cccc(-c3cc4c([nH]3)CCNC4=O)c2n1 [Example 216] | – |
| 3440 | – | 5.3 | CC(C)(C)Nc1nc2c(-c3cc4c([nH]3)CCNC4=O)cccc2nc1C=O [Example 282, 3-(tert-butylamino)-5-(4-oxo-4,5,6,7-tetrahydro-1H-pyrrolo[3,2-c]pyridin-2-yl)-2-quinoxalinecarbaldehyde] | – |
| 1530 | 7.8 | – | Cc1nc2cccc(-c3cc4c([nH]3)CCNC4=O)c2nc1CC(C)(C)C [Example 272, 2-(3-(2,2-dimethylpropyl)-2-methyl-5-quinoxalinyl)-1,5,6,7-tetrahydro-4H-pyrrolo[3,2-c]pyridin-4-one] | – |
| 307 | – | – | Cc1nc2cccc(-c3cc4c([nH]3)CCNC4=O)c2nc1NC1CCCOC1 (racemic) [Example 198, rac-2-(2-methyl-3-((tetrahydro-2H-pyran-3-yl)amino)quinoxalin-5-yl)-6,7-dihydro-1H-pyrrolo[3,2-c]pyridin-4(5H)-one] | – |
